Measured values from PMC7684578, “Isopedopeptins A–H: Cationic Cyclic Lipodepsipeptides from Pedobacter cryoconitis UP508 Targeting WHO Top-Priority Carbapenem-Resistant Bacteria” (ACS Chemical Biology, 2020).
Read-outs that look alike come from different tables or passages of the source. Starred links: 1 amine or outer side, 2 acyl side, 3 side chain; linkers in the order of their positions; H or OH if unused. Positions of bridges follow the written chain, without caps; N, C: chain ends. Non-standard residues stand in square brackets, D forms with d. Residues, ends and D or L forms follow the SMILES beside them. X4 = CC(C)CCC=CCCC[C@H](CC(=O)[*:1])O[*:2]; X6 = CC(C)CCCCC=CC[C@H](CC(=O)[*:1])O[*:2]; X5 = CC(C)CCCCCCC[C@H](CC(=O)[*:1])O[*:2]; X3 = CC(C)CCCCC[C@H](CC(=O)[*:1])O[*:2]; X7 = CCCCCCC=CC[C@H](CC(=O)[*:1])O[*:2]; X2 = CCCCCCC[C@H](CC(=O)[*:1])O[*:2]; Val(3-OH) = CC(C)(O)[C@H](N)C(=O)O; X1 = C/C=C(/N[*:1])C(=O)[*:2]; Dab = NCC[C@H](N)C(=O)O; Dap = NC[C@H](N)C(=O)O

How the values were obtained:
[1] = in vitro; assay type: cell-based; conditions: human, pH 7.4, Hemolysis (%)
Protocol: (§1) positive control (Bortezomib) SI of <5%. The half maximal inhibitory concentration (IC50) was determined from log concentration-effect curves using non-linear regression analysis.
(§2) Frequency of resistance (FoR). For the determination of the FoR, the MIC of compound 2 was first evaluated on solid MH-agar medium prepared in 35 mm diameter plates. Each plate contained 4 mL agar with the appropriate amount of compound. Bacterial cultures were grown and prepared as described for the MIC assay. 13 µL of bacterial culture diluted to 0.5 MacFarland was inoculated into 1 mL 0.9% NaCl resulting in ~2 × 10^6 CFU/mL. 5 µL of this bacterial suspension was spotted onto the surface of each agar plate (~10^4 CFU/spot). Plates were sealed and incubated at 37°C for 18–20 hours. Agar MIC was recorded according to CLSI guidelines as the lowest concentration of […]
faint haze caused by the inoculum. Then 9 cm plates were prepared with 25 mL MHII agar medium containing 4 × or 8 × solid MIC concentrations of test compounds and seeded with 100 µL of a bacterial preparation, concentrated by centrifugation from overnight cultures and resuspended in 0.9% NaCl, corresponding to 108 CFU and 109 CFU per plate, and spread on the agar using 4–5 glass beads of 4 mm diameter. Since CFU were evaluated using the McFarland turbidity standard, the exact CFU number plated was evaluated by plating of serial dilutions of each inoculum preparation on MHII agar plates. Plates were incubated at 37°C and colonies were counted at 24 h and 48 h post-plating. The frequencies of resistance were then calculated by counting the number of validated resistant colonies growing on antibiotic preparations divided by the evaluated number of CFU in the inoculum.
Hemolysis assay. Compounds were evaluated for hemolytic activity using red blood cells from heparinized human blood. Red blood cells (RBC) were washed three times in Tyrode buffer (130 mM NaCl, 4 mM KCl, 2.8 mM NaOAc, 1 mM MgCl2, 10 mM HEPES, 10 mM glucose, 1 mM CaCl2, adjusted to pH 7.4) and resuspended in the same buffer. Final concentrations in the hemolysis assay were: 100 µM compound, 1% DMSO, and 50% RBC, assayed in a 200 µL volume in a microtiter plate. The mixture was incubated at 37 °C for 45 min with shaking (250 rpm). After incubation, RBCs were removed by centrifugation (1000 × g for 10 min), 100 µL clear plasma was transferred to a fresh microtiter plate, and the amount of hemoglobin measured using a spectrophotometer at 540 nm. The […]
complete lysis control contained 2% Triton X-100 (in Tyrode buffer) instead of compound; the negative control contained Tyrode buffer but no compound. Percent hemolysis was calculated as:
[Abs compound] - [Abs negative control] / [Abs complete lysis control] - [Abs negative control] ×
100. Values greater than 1% hemolysis at 100 µM were regarded as a red flag.
Bacterial membrane permeabilization assay. Liposomes were manufactured and permeabilization assayed as described previously.8 Briefly, dry lipid films of E. coli polar lipid extract were formed on round-bottom flask walls. This was achieved by dissolving lipids in chloroform and evaporating the solvent under agitation and nitrogen gas flow, followed by incubation in vacuum chamber. Lipid films were re-suspended by 30 min stirring (E. coli) at 55°C in an aqueous solution of 100 mM 5(6)-carboxyfluorescein in 10 mM Tris buffer (set to pH 7.4 at 37°C). Suspensions were subjected to repeated extrusion through a 100 nm pore size polycarbonate membrane in order to reduce multilamellar structures and polydispersity. Un-trapped carboxyfluorescein was removed by gel filtration. Membrane permeability was measured by monitoring carboxyfluorescein efflux from the liposomes to the external low concentration environment, resulting in loss of self-quenching and an increased fluorescence signal. The 96-well plates were prepared with a 2-fold serial dilution of the samples in Tris buffer, as well as negative controls (background) and 0.16% Triton X-100 (maximum […]
leakage). […]

[2] = test system: HepG2 cells; test: In vitro cytotoxicity, fluorometric microculture cytotoxicity assay; assay type: cell-based; conditions: Homo sapiens, HepG2 liver, 72 h
Protocol: 10^8 CFU/mL) with turbidity assessed using a Sensititre Nephelometer (Trek Diagnostics Systems Ltd, UK). 50 µL of this bacterial suspension was transferred to 10 mL of MHII broth to give a final bacterial concentration ≅ 5 × 10^5 CFU/mL (acceptable range 3 – 7 × 10^5 CFU/mL). 50 µL of bacterial suspension was pipetted into each well (except the medium control well, where 50 µL MHII was pipetted). Final volume in each well was 100 µL. Plates were covered and incubated without shaking for 18-20 h at 35 °C ± 2 °C. MIC was read visually, as complete inhibition of growth by the unaided eye, using the medium-only wells as the control. Each compound was assayed at least in duplicate.
Additionally, the MIC for compound 2 against clinical carbapenem-resistant strains of A. baumannii […]
determined at the Public Health Agency of Sweden (according to EUCAST recommendations).
In vitro Cytotoxicity Determination. In vitro cytotoxicity was determined by a fluorometric microculture cytotoxicity assay,7 based on hydrolysis of fluorescein diacetate to fluorescein by cells with intact plasma membranes. In short, HepG2 cells (hepatocellular carcinoma cells, ATCC), in Eagle's Minimum Essential Medium (ATCC) supplemented with 10 % fetal bovine serum, penicillin/streptomycin (100 U/100 µg/mL) and 2 mM L-glutamine, were seeded in 384-well assay plates at a density of 1000 cells/well. The cells were incubated over night at 37°C and compounds in 10 mM DMSO were added, to obtain final concentrations 64 µM – 0.25 µM in two-fold dilutions.
After incubation for 72 h at 37°C, the cells were pelleted and washed. Fluorescein diacetate was added (1 µL, 0.5 mg/mL) and the fluorescence [485 nm(exc)/530 nm(em.)] was measured after 50 min at 37°C. Bortezomib (2 µM) was used as positive control and dose response testing of doxorubicin (top concentration 2 µM) was performed repeatedly to follow assay performance over time. Cytotoxicity was assessed after 72 h with cell survival presented as survival index (SI, %) defined as fluorescence in test wells in percent of control cultures with blank values subtracted.
Criteria for a successful assay include a signal-to-noise ratio in control cultures >10, CV <30% and a 7 Lindhagen, E., Nygren, P., and Larsson, R. (2008) The fluorometric microculture cytotoxicity assay. Nat. […]
as §1, §2
faint haze caused by the inoculum. Then 9 cm plates were prepared with 25 mL MHII agar medium containing 4 × or 8 × solid MIC concentrations of test compounds and seeded with 100 µL of a bacterial preparation, concentrated by centrifugation from overnight cultures and resuspended in 0.9% NaCl, corresponding to 108 CFU and 109 CFU per plate, and spread on the agar using 4–5 glass beads of 4 mm diameter. Since CFU were evaluated using the McFarland turbidity standard, the exact CFU number plated was evaluated by plating of serial dilutions of each inoculum preparation on MHII agar plates. Plates were incubated at 37°C and colonies were counted at 24 h and 48 h post-plating. The frequencies of resistance were then calculated by counting the number of validated resistant colonies growing on antibiotic preparations divided by the evaluated number of CFU in the inoculum. […]

**Q.** What does the source list for `C/C=C1/NC(=O)[C@H](CCN)NC(=O)[C@H](CC(C)C)NC(=O)[C@H](CN)NC(=O)C[C@@H](CCCC=CCCC(C)C)OC(=O)[C@H](CC(=O)O)NC(=O)[C@H](C(C)C)NC(=O)[C@@H](Cc2ccccc2)NC(=O)[C@H](CN)NC(=O)[C@H]([C@@H](C)O)NC1=O` [Compound 7, Isopedopeptin G] ([Dap]L[Dab][X1]T[Dap][dF]VD; linker N-C via X4)?
**A.** hemolysis at 45 min, 100 µM [1]: 14.1%; IC50 ([2]; read-out: IC50(μM) HepG2): 11 µM; IC50 ([2]; read-out: IC50(μg/mL) HepG2): 13 µg/mL

**Q.** What does the source list for `C/C=C1/NC(=O)[C@H](CCN)NC(=O)[C@H](CC(C)C)NC(=O)[C@H](CN)NC(=O)C[C@@H](CC=CCCCCC(C)C)OC(=O)[C@H](CC(=O)O)NC(=O)[C@H](C(C)C)NC(=O)[C@@H](Cc2ccccc2)NC(=O)[C@H](CN)NC(=O)[C@H]([C@@H](C)O)NC1=O` [Compound 8, Isopedopeptin H] ([Dap]L[Dab][X1]T[Dap][dF]VD; linker N-C via X6)?
**A.** hemolysis at 45 min, 100 µM [1]: 52.3%; IC50 ([2]; read-out: IC50(μM) HepG2): 14 µM; IC50 ([2]; read-out: IC50(μg/mL) HepG2): 16 µg/mL

**Q.** Which hemolysis at 45 min, 100 µM [1] does the source give for `C/C=C1/NC(=O)[C@H](CCN)NC(=O)[C@H](CC(C)C)NC(=O)[C@H](CN)NC(=O)C[C@@H](CCCCCCC)OC(=O)[C@H](CC(=O)O)NC(=O)[C@H](C(C)(C)O)NC(=O)[C@@H](Cc2ccccc2)NC(=O)[C@H](CN)NC(=O)[C@H]([C@@H](C)O)NC1=O` [Compound 2, isopedopeptin B] ([Dap]L[Dab][X1]T[Dap][dF][Val(3-OH)]D; linker N-C via X2) here?
**A.** < 0.8%

**Q.** And the IC50 ([2]; read-out: IC50(μM) HepG2)?
**A.** 50 µM

**Q.** And the IC50 ([2]; read-out: IC50(μg/mL) HepG2)?
**A.** 56 µg/mL

**Q.** For `C/C=C1/NC(=O)[C@H](CCN)NC(=O)[C@H](CC(C)C)NC(=O)[C@H](CN)NC(=O)C[C@@H](CCCCCCC)OC(=O)[C@H](CC(=O)O)NC(=O)[C@H](C(C)C)NC(=O)[C@@H](Cc2ccccc2)NC(=O)[C@H](CN)NC(=O)[C@H]([C@@H](C)O)NC1=O` [Compound 4, isopedopeptin D] ([Dap]L[Dab][X1]T[Dap][dF]VD; linker N-C via X2), which hemolysis at 45 min, 100 µM [1] is on record?
**A.** 9.1%

**Q.** And the IC50 ([2]; read-out: IC50(μM) HepG2)?
**A.** 9 µM

**Q.** What about the IC50 ([2]; read-out: IC50(μg/mL) HepG2) of the same compound?
**A.** 10 µg/mL

**Q.** Which hemolysis at 45 min, 100 µM [1] does the source give for `C/C=C1/NC(=O)[C@H](CCN)NC(=O)[C@H](CC(C)C)NC(=O)[C@H](CN)NC(=O)C[C@@H](CCCCCC(C)C)OC(=O)[C@H](CC(=O)O)NC(=O)[C@H](C(C)C)NC(=O)[C@@H](Cc2ccccc2)NC(=O)[C@H](CN)NC(=O)[C@H]([C@@H](C)O)NC1=O` [Compound 5, Isopedopeptin E] ([Dap]L[Dab][X1]T[Dap][dF]VD; linker N-C via X3) here?
**A.** 5.2%

**Q.** What about the IC50 ([2]; read-out: IC50(μM) HepG2) of the same compound?
**A.** 13 µM

**Q.** And the IC50 ([2]; read-out: IC50(μg/mL) HepG2)?
**A.** 14 µg/mL

**Q.** What does the source list for `C/C=C1/NC(=O)[C@H](CCN)NC(=O)[C@H](CC(C)C)NC(=O)[C@H](CN)NC(=O)C[C@@H](CCCCCCCC(C)C)OC(=O)[C@H](CC(=O)O)NC(=O)[C@H](C(C)(C)O)NC(=O)[C@@H](Cc2ccccc2)NC(=O)[C@H](CN)NC(=O)[C@H]([C@@H](C)O)NC1=O` [Compound 6, Isopedopeptin F] ([Dap]L[Dab][X1]T[Dap][dF][Val(3-OH)]D; linker N-C via X5)?
**A.** hemolysis at 45 min, 100 µM [1]: 27.5%; IC50 ([2]; read-out: IC50(μM) HepG2): 9 µM; IC50 ([2]; read-out: IC50(μg/mL) HepG2): 10 µg/mL

**Q.** Which hemolysis at 45 min, 100 µM [1] does the source give for `C/C=C1/NC(=O)[C@H](CCN)NC(=O)[C@H](CC(C)C)NC(=O)[C@H](CN)NC(=O)C[C@@H](CCCCCC(C)C)OC(=O)[C@H](CC(=O)O)NC(=O)[C@H](C(C)(C)O)NC(=O)[C@@H](Cc2ccccc2)NC(=O)[C@H](CN)NC(=O)[C@H]([C@@H](C)O)NC1=O` [Compound 1, cyclo(3-hydroxy-9-methyldecanoyl-DAPA1-Leu-DABA-ABA-Thr-DAPA2-Phe-OHVal-Asp)] ([Dap]L[Dab][X1]T[Dap][dF][Val(3-OH)]D; linker N-C via X3) here?
**A.** 4.2%

**Q.** What about the IC50 ([2]; read-out: IC50(μM) HepG2) of the same compound?
**A.** 29 µM

**Q.** What about the IC50 ([2]; read-out: IC50(μg/mL) HepG2) of the same compound?
**A.** 33 µg/mL

**Q.** With `C/C=C1/NC(=O)[C@H](CCN)NC(=O)[C@H](CC(C)C)NC(=O)[C@H](CN)NC(=O)C[C@@H](CC=CCCCCCC)OC(=O)[C@H](CC(=O)O)NC(=O)[C@H](C(C)(C)O)NC(=O)[C@@H](Cc2ccccc2)NC(=O)[C@H](CN)NC(=O)[C@H]([C@@H](C)O)NC1=O` [Compound 3, isopedopeptin C] ([Dap]L[Dab][X1]T[Dap][dF][Val(3-OH)]D; linker N-C via X7) as the compound, how does the hemolysis at 45 min, 100 µM [1] read?
**A.** 3%

**Q.** And the IC50 ([2]; read-out: IC50(μM) HepG2)?
**A.** 29 µM

**Q.** And the IC50 ([2]; read-out: IC50(μg/mL) HepG2)?
**A.** 33 µg/mL
